Experimental data reported in patent US5851537A (priority 1997, dated 1998).
Values after ≈ are worked out from the molar mass of the structure shown.

Experiments:
[1] = system: psoriasis and various cutaneous malignancies; conditions: cited from earlier work
[2] = system: cultured normal keratinocytes; conditions: in vitro; cited from earlier work
human skin [3] = assay: in vitro
Method: (§1) These were minced by scissors and then sonicated for 30 seconds in 100 μL of (0.4 m) HClO4 containing 10 mM internal standard GABA. To this mixture, 100 μL of water was added and the contents were then centrifuged at 10,000×G for 3 min. A 10 μL aliquot of supernatant was added to 40 μL of sodium tetraborate solution (pH 9.3) and mixed with […] the derivatizing agent 6-aminoquinolyi-N-hydroxysuccinimidyl carbamate. This mixture was then heated for 10 min. at 50° C. and a 20 μL aliquot was injected into the HPLC.

in vitro = conditions: skin, topical or ocular
Method: as §1

mouse skin [4] = assay: α-DFMO content of mouse skin samples; conditions: 10% α-DFMO in Vanicream, 37° C.
Method: as §1

human skin [5] = system: human skin
[6] = solubility limit in the vehicle; format: physicochemical; conditions: in the particular vehicle used
From the text: Having thus described the invention, it will be apparent to those of skill in the art that modifications can be made within the scope of the invention. […] Also, the vehicle cannot contain absorption enhancers.

[7] = oral, single 0.5 g/m^2 dose given daily, cited from earlier work
[8] = oral, humans; cited from earlier work
[9] = chemical stability of α-DFMO in cream, HPLC; format: physicochemical; conditions: Vanicream, 4° C., six month time point; 262800 min
Method: The reverse phase (C-18 column, Alitech Associates, 150 mm×4.6 mm, […]) assay was performed with a 30 minute gradient elution using two mobile phases (A and B) containing aqueous buffer and acetonitrile, respectively. Mobile phase A contained 100 mM sodium acetate, 15 mM triethylamine, and […] sodium EDTA dissolved in water at pH 5.0. Mobile phase B was acetonitrile UV® (Burdick & Jackson, Muskegon, Mich.). The starting proportion, A:B, was 92:8, at 18 min. it was 80:20; at 19-21 min. 40:60; and at 22-30 min. 92:8 [21]. The mobile phase was pumped at 1.2 mL/min. using a Perkin Elmer Biocompatible Binary Pump, a Hitachi AS-2000 Autosampler and a Hewlett Packard Series 1050 Solvent Programmer.
For the stability assays, the 10% cream formulation was stored at 4° C. for up to 6 months and 10 μL aliquots were removed weekly and analyzed by HPLC after extraction using 1 mL distilled water.

[10] = phase IIb study, α-DFMO in skin and blood
From the text: (§2) Forty-eight participants with severe actinic keratoses (AKs) on their forearms (i.e. at least ten well circumscribed lesions nonlateral, sun-exposed surfaces) completed a one month run-in on placebo ointment applied twice daily to the affected areas. […] After six months of treatment, all measurements were repeated. […] The study was described at the thirty-second annual meeting of the American Society of Clinical Oncology on May 18-21, 1996.

psoriatic lesions = conditions: cited from earlier work
skin ODC = conditions: five of seven subjects, 6 hours after oral dosing, 0.5 g/m^2; cited from earlier work
human skin [11] = assay: in vitro transdermal penetration, human skin (diffusion cells); conditions: 24 hours, 37° C., 10% α-DFMO
UVB induced skin cancer = conditions: cited from earlier work
mouse epidermis = conditions: five percent solution, in vitro; cited from earlier work
BALB/c mice = assay: four week topical toxicity study in mice; format: in vivo
From the text: Adult female BALB/c mice, 25-31 gm. weight, were obtained from Jackson Laboratories, Bar Harbor, Me. For toxicology tests, the mice were housed 5/cage and received standard lab chow and tap water ad libitum. A 12-hour light/dark cycle in a humidified atmosphere was utilized. Toxicology Study A cohort of 20 mice were de-haired over a 2 cm^2 dorsal area using the topical depilatory agent, Nair® Lotion (Carter Wallace, Inc., New York, N.Y.). […] The daily dose was delivered by a positive displacement pipette (Micro-Man®, Gilson Scientific, Woburn, Mass.).
Using the murine total body surface area conversion nomogram of Freireich et al., the daily doses for the 3 cream concentrations of 1%, 5% and 10% were 71.4 mg/m^2, 357 mg/m^2, 714 mg/m^2. For the total four week period, the cumulative doses were 1.43 g/m^2, 7.14 g/m^2 and 14.28 g/m^2. […] The skin application sites were observed daily for evidence of any local toxicity (erythema, induration or ulceration) and the animals were weighed weekly. At the end of the four week treatment period, the mice were sacrificed by rapid cervical dislocation and blood samples were obtained for quantifying renal function (BUN, creatinine), hepatic function (SGOT-SGPT, bilirubin), electrolytes (Na^+ K^+ Cl^-, ^- HCO3^-), hematologic indices (WBC with differential, RBC, platelets) and glucose (Animal Diagnostic Laboratories,Tucson, Ariz.).

total polyamines = assay: phase IIb study, total polyamines; format: in vivo, human; conditions: 10% (w/w) topical, six months, compared to placebo
From the text: as §2

ornithine decarboxylase = conditions: time and concentration dependence, reversibility; cited from earlier work
actinic keratoses (AKs) = assay: phase IIb study, number of actinic keratoses; format: in vivo, human; conditions: 10% (w/w) topical, six months, compared to placebo
From the text: as §2

[12] = in vivo
From the text: as §2

mouse skin [13] = assay: in vitro transdermal penetration, mouse skin (diffusion cells); format: in vitro ADME, BALB/c mice
[14] = ten percent cream with absorption enhancer, ten patients

In the case of `CC(/C=N/NC(=N)N)=N\NC(=N)N` [MGBG, mitoguazone], the skin irritation ([1]; in vivo) is given as “highly irritating”, the “therapeutic effects in psoriasis and various cutaneous malignancies” value ([1]; topically or intralesionally) is given as “produces therapeutic effects” and the “proliferation of cultured normal keratinocytes” value [2] is given as “decrease the proliferation”.
In the case of `NCCC[C@](N)(C(=O)O)C(F)F` [α-DFMO, alpha-difluoromethylornithine], the intradermal levels (human skin [3]) is reported as “substantial intradermal levels”, the “time of peak uptake into human skin” value (human skin [3]) is reported as 24 h and the concentration (human skin [3]; human, skin, topical or ocular) is reported as 1360 µM. For the same compound, the concentration at 24 h (in vitro; human) was 323000 ng/g, the concentration at 4 h (in vitro; mouse) was 7.25e+06 ng/g and the “time of peak uptake into mouse skin” value (mouse skin [4]) was 4 h. The “time until transdermal human skin penetration apparent” value (human skin [5]) was > 20 h, the solubility [6] was ~220 mg/mL (≈ 1210 mM) and the “plasma concentration×time product” value [7] was 311 μm×hr. The “terminal phase half life” value [7] was 3.5 h, the Cmax ([7]; read-out: peak α-DFMO plasma concentrations) was 47.1 µM and the ototoxicity [8] was “associated with ototoxicity”. For the same compound, the “loss of α-DFMO” value [9] was < 1%, the α-DFMO in blood ([10]; 10% (w/w) topical, six months) was “not detected in blood” and the systemic uptake ([10]; in vivo) was “no systemic uptake”. For the same compound, the “treated forearms with high DFMO skin levels” value ([10]; in vivo) was “thirteen”, the systemic uptake (psoriatic lesions; human, in vivo) was “systemic uptake in the patients” and the “improvement in psoriatic lesions” value (psoriatic lesions; [14]) was “marginal improvement”. The “reduction of cutaneous spermine levels” value (psoriatic lesions; [14]) was “sixty-six”, the “reduction in skin ODC levels” value (skin ODC) was ≥ 50% and the degree of penetration (human skin [11]) was 0.7 % of the applied concentration. The body weight loss (UVB induced skin cancer; 1% drinking water solution) was 16%, the hyperactivity (UVB induced skin cancer; 1% drinking water solution) was “sound-induced hyperactivity” and the “UVB induced skin cancer incidence” value (UVB induced skin cancer; 1% solution in drinking water, reduced from 38%) was 9%. The UVB-induced immunosuppression (UVB induced skin cancer; oral α-DFMO regimen, 1% in drinking water) was “prevented UVB-induced immunosuppression”, the putrescine levels (mouse epidermis) was “twenty-five” and the “spermine and spermidine levels” value (mouse epidermis) was “not affected”. The “synthesis of DNA” value (mouse epidermis) was “blocks the synthesis of DNA”, the “drug related alterations in weight gain” value (BALB/c mice; mouse, in vivo) was “without drug related alterations in weight gain” and the hair regrowth (BALB/c mice; mouse, in vivo) was “proceeded normally”. For the same compound, the local skin irritation (BALB/c mice; mouse, in vivo) was “no evidence of local skin irritation”, the “serum enzymes, electrolytes or hematologic parameters” value (BALB/c mice; mouse, in vivo) was “no alterations” and the survival (BALB/c mice; topical 1%, 5% or 10% cream, through the study period) was “survived through the study period”. For the same compound, the “toxicity in mice (summary)” value (BALB/c mice; topical formulation) was “nontoxic in mice”, the “suppression of total polyamines” value (total polyamines) was 21% and the “inhibition of ornithine decarboxylase” value (ornithine decarboxylase) was “time and concentration dependent but is irreversible”. For the same compound, the “reduction in the number of AKs” value (actinic keratoses (AKs)) was 21%, the “participants with moderately severe skin rash” value [12] was “one” and the “participants with skin rash in the area of DFMO application” value [12] was “Four”. The systemic toxicities [12] was “no systemic toxicities”, the “uptake into and penetration through mouse skin” value (mouse skin [13]) was “significant α-DFMO uptake into and penetration through mouse skin” and the “degree of transdermal penetration versus azone-containing formulation” value (mouse skin [13]; 10% α-DFMO in Vanicream, mice, vs 5% α-DFMO with azone) was “substantially less”. The calculated penetration rate (mouse skin [13]; mouse skin, 10% α-DFMO formulation in Vanicream) was 3.6 μg/cm^2 /hour, the “mean percent uptake (transdermal penetration)” value (mouse skin [13]; mouse skin, 37° C., 24 hours, 10% α-DFMO) was 61.53 % of the applied dose and the “time of maximal transdermal penetration” value (mouse skin [13]; mouse skin, 37° C., Vanicream) was 24 h. The “time of maximal penetration” value (mouse skin [13]; mouse skin, hydrophilic ointment U.S.P., 37° C.) was 12 h.
